Columns and labels:
skin barrier formation = test: Eigengene analysis of younger-appearance genes, skin barrier; assay type: cell-based; details: cultured human keratinocytes
[1] = test system: "Clear and Detox" module genes; test: Eigengene analysis of "Clear and Detox" co-expression module; details: FIG. 8
[2] = test system: "Repair and Rebuild" associated genes; test: Eigengene analysis of "Repair and Rebuild" co-expression module; details: 301 genes, FIG. 9

Row | Substance | effects relating to successful aging in skin barrier formation (skin barrier formation) | effect on "Clear and Detox" eigengene [1] | effect on "Repair and Rebuild" eigengene [2]
1 | palmitoyl-lysine-threonine [Pal-KT] | Effects relating to successful aging were also identified | significantly up-regulates | –
2 | palmitoyl-lysine-threonine-threonine-lysine-serine [Pal-KTTKS] | – | – | significantly up-regulate

From patent US20160074291A1, “ANTI-AGING SKIN CARE COMPOSITIONS AND REGIMENS” (The Procter & Gamble Company, priority 2014, published 2016)
